Activity calls are given as the source filed them. Cut-off read from the data, not from the text of the source, for most assays here: actives have a measured Kd and inactives only a lower limit.
Experiments:
[1] = target: TRAF2 and NCK-interacting protein kinase (Homo sapiens, UniProt Q9UKE5)
Activated CDC42 kinase 1 = Activated CDC42 kinase 1 (Homo sapiens, UniProt Q07912)
[2] = target: Serine/threonine-protein kinase MRCK beta (Homo sapiens, UniProt Q9Y5S2)
[3] = target: Serine/threonine-protein kinase SIK2 (Homo sapiens, UniProt Q9H0K1)
Activin receptor type-1 = target: T1, Activin receptor type-1 (Homo sapiens, UniProt Q04771)
T1 sequence (Q04771 whole entry): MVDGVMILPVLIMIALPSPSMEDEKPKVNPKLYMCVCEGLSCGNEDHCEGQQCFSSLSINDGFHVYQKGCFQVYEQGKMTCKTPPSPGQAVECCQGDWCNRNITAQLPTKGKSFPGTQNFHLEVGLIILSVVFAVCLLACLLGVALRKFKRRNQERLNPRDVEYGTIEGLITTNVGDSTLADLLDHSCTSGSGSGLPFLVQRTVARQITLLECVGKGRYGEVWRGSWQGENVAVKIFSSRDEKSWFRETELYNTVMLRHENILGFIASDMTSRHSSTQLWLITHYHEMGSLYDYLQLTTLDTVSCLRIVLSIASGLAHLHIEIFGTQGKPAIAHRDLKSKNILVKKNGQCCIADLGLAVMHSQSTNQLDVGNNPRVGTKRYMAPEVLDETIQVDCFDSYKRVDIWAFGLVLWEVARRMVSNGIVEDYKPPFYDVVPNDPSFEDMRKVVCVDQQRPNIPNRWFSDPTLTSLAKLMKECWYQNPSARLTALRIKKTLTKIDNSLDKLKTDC

[4] = target: T2, Mitogen-activated protein kinase kinase kinase 6 (Homo sapiens, UniProt O95382)
T2 sequence (O95382 whole entry): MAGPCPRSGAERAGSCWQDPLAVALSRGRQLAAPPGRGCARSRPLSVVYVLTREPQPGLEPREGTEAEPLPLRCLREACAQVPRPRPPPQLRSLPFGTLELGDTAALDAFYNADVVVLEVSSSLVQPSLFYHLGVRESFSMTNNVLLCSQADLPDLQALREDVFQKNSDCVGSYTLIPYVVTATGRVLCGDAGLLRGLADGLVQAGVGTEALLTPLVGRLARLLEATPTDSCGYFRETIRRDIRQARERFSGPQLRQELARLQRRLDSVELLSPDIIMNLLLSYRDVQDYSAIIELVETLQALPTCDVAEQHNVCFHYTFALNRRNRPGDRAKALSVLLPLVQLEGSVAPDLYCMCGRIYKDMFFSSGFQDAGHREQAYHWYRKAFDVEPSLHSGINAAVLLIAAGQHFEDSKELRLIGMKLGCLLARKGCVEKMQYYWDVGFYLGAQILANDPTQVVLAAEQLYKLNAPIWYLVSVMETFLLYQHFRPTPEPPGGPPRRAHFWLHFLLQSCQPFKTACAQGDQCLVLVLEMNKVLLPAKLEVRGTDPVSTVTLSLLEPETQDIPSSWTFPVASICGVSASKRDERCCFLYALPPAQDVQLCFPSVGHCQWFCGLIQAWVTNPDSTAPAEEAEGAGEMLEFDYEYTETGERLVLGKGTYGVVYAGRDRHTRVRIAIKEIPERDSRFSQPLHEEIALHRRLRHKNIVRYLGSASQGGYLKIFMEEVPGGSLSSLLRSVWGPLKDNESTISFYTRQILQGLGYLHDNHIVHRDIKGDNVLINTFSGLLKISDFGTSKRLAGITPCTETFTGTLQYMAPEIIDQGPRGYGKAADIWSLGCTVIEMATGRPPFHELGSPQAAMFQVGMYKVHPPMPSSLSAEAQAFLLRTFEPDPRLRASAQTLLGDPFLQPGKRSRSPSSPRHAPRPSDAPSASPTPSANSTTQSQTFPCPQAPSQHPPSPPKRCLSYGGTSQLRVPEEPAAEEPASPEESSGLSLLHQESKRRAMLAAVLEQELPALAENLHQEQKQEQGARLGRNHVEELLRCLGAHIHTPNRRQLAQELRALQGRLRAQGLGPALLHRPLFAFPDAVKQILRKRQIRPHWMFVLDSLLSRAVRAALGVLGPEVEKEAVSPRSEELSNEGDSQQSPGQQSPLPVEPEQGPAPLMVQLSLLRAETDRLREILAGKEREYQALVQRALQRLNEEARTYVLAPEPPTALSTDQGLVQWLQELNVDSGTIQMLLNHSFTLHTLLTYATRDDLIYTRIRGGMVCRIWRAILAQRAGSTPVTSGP
Note: in the data inactive means no Kd found up to 30 µM.

Chain of Activated CDC42 kinase 1 (Q07912 whole entry): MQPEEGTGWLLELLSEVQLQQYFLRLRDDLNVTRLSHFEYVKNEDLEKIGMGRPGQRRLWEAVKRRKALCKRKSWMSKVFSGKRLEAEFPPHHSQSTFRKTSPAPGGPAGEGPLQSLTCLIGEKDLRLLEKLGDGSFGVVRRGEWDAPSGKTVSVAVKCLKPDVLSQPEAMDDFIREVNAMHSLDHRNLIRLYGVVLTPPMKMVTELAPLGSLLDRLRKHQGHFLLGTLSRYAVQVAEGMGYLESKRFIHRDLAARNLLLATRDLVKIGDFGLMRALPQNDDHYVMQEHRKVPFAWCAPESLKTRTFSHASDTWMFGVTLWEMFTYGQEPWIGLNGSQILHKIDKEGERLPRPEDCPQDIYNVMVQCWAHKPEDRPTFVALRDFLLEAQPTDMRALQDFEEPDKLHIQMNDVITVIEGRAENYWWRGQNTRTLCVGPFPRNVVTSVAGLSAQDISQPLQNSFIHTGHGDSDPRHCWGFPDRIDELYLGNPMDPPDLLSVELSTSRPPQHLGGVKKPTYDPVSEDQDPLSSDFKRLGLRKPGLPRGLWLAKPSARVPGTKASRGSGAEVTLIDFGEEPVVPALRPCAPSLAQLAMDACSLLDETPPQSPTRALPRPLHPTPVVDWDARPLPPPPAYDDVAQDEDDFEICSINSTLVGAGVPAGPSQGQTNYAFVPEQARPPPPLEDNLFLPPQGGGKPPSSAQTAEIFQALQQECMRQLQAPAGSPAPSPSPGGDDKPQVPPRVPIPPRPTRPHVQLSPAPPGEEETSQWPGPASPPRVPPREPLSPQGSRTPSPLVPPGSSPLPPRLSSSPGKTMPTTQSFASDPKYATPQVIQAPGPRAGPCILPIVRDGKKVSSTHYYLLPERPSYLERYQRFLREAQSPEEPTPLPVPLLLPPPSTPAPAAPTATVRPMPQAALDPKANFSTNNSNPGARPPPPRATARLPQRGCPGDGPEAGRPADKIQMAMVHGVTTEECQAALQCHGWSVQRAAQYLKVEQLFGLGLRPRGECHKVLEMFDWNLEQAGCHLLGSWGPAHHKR
Chain of Serine/threonine-protein kinase SIK2 (Q9H0K1 whole entry): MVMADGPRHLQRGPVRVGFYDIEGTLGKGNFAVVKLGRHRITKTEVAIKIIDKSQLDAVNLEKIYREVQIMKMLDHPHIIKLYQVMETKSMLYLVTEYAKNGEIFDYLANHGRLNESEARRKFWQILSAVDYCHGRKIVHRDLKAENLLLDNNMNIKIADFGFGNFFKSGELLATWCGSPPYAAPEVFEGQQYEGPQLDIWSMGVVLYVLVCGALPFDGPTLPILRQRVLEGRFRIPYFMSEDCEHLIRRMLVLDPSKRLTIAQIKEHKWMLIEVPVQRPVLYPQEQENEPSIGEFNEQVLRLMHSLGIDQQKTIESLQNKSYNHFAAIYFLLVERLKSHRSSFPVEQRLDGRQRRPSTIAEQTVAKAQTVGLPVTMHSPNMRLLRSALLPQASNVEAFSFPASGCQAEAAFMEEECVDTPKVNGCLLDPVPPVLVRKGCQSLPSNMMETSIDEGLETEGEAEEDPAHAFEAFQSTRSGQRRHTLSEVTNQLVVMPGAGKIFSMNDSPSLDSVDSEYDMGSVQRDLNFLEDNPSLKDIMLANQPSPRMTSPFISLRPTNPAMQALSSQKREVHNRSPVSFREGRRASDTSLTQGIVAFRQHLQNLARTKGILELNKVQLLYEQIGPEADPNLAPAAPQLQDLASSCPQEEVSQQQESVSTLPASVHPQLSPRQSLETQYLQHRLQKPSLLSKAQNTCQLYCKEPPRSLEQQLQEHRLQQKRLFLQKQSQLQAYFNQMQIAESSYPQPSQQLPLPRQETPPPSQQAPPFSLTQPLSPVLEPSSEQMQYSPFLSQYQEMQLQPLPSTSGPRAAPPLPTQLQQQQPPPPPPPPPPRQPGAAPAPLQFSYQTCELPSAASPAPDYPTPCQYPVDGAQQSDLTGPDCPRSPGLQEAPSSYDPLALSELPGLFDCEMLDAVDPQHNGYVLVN
Chain of Serine/threonine-protein kinase MRCK beta (Q9Y5S2 whole entry): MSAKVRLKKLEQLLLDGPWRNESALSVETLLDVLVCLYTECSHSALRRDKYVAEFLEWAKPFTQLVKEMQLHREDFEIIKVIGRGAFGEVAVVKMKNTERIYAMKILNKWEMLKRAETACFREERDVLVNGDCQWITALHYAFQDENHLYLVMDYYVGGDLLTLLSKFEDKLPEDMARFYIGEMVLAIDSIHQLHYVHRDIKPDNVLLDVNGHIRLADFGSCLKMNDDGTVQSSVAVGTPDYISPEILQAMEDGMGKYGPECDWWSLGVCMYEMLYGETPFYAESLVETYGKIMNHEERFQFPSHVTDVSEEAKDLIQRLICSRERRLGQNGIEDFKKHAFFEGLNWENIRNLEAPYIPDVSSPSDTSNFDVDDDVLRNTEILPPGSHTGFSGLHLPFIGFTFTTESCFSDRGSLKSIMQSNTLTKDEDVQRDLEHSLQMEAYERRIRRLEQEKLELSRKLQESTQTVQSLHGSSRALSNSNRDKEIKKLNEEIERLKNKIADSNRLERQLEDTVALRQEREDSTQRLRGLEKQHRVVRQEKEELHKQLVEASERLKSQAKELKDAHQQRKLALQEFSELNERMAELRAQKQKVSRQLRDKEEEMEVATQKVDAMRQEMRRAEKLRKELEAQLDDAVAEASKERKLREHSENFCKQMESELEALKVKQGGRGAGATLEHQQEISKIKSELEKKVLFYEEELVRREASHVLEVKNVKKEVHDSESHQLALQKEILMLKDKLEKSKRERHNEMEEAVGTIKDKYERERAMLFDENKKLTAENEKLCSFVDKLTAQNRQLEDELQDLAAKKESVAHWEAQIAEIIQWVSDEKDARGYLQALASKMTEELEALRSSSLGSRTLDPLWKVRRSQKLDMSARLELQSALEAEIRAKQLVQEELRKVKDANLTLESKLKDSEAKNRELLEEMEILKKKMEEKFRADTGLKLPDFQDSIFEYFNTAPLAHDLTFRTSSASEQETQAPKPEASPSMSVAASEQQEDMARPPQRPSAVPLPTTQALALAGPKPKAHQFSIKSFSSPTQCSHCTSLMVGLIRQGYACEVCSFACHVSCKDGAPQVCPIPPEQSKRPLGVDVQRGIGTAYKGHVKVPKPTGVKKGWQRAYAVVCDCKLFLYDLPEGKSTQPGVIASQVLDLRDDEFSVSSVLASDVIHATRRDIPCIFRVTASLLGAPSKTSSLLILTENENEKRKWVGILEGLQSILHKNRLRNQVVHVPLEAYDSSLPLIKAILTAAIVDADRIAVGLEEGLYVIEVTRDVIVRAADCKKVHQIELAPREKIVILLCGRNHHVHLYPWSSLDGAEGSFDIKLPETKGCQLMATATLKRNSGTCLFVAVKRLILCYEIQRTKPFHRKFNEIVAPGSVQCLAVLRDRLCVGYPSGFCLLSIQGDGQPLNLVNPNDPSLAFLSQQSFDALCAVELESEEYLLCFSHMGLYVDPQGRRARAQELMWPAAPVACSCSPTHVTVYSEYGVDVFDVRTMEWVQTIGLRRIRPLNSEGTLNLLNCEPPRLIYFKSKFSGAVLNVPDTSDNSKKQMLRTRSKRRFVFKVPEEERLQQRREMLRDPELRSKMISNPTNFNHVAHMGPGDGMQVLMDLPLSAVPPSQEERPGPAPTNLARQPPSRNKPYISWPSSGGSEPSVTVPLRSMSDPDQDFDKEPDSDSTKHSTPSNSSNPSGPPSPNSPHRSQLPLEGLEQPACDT
Chain of TRAF2 and NCK-interacting protein kinase (Q9UKE5 whole entry): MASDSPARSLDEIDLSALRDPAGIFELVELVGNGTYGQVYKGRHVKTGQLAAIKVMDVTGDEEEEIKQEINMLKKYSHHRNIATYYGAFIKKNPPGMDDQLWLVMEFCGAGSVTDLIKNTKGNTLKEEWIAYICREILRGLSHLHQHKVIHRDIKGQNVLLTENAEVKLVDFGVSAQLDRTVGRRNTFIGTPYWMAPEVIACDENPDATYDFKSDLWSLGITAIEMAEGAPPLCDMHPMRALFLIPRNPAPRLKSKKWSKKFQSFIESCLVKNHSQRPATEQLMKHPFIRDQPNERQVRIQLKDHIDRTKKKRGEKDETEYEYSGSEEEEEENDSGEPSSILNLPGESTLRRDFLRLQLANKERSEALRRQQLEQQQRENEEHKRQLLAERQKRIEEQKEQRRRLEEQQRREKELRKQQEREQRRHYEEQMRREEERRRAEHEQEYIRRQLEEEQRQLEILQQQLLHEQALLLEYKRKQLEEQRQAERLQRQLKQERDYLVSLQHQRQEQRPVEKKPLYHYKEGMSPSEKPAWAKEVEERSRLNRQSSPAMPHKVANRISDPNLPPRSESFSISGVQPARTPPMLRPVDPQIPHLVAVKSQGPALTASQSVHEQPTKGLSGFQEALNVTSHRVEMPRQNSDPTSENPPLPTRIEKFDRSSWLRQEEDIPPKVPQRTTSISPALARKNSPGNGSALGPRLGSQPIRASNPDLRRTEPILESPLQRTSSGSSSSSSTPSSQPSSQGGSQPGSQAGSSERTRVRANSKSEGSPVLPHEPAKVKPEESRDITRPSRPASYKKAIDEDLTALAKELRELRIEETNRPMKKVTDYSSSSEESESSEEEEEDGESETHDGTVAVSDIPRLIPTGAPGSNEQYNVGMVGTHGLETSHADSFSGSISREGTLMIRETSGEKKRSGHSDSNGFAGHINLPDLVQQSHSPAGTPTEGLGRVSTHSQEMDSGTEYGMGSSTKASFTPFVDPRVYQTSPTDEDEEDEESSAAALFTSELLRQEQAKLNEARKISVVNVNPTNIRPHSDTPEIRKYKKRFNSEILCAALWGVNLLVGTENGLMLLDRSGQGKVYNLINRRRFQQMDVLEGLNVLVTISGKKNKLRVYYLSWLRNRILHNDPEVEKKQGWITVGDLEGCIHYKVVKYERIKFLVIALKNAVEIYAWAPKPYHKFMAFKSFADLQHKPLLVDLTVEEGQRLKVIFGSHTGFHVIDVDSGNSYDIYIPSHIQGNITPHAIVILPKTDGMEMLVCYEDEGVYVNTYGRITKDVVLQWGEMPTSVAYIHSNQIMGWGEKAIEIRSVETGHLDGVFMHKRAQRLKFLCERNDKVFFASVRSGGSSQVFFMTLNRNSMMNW

| Kd [1] | Kd (Activated CDC42 kinase 1) | Kd [2] | Kd [3] | Kd (Activin receptor type-1) | Kd [4] | SMILES |
| --- | --- | --- | --- | --- | --- | --- |
| > 30 µM (inactive) | > 30 µM (inactive) | > 30 µM (inactive) | > 30 µM (inactive) | > 30 µM (inactive) | > 30 µM (inactive) | CCCS(=O)(=O)Nc1ccc(F)c(C(=O)c2c[nH]c3ncc(-c4ccc(Cl)cc4)cc23)c1F [VEMURAFENIB] |
| > 30 µM (inactive) | > 30 µM (inactive) | > 30 µM (inactive) | > 30 µM (inactive) | > 30 µM (inactive) | > 30 µM (inactive) | CC[C@@H]1C(=O)N(C)c2cnc(Nc3ccc(C(=O)N[C@H]4CC[C@H](N5CCN(CC6CC6)CC5)CC4)cc3OC)nc2N1C(C)C [VOLASERTIB] |
| > 30 µM (inactive) | > 30 µM (inactive) | > 30 µM (inactive) | > 30 µM (inactive) | > 30 µM (inactive) | > 30 µM (inactive) | CCn1c(=O)c(-c2cc[nH]n2)cc2c(C)nc(N)nc21 [VOXTALISIB] |
| > 30 µM (inactive) | > 30 µM (inactive) | > 30 µM (inactive) | 0.3 µM (active) | > 30 µM (inactive) | > 30 µM (inactive) | O=C(Nc1ccc(-c2ccnc(Nc3ccc(N4CCOCC4)cc3)n2)cc1)C1CCCN1 (centres undefined) [XL-019] |

— ChEMBL document CHEMBL3991601, “The target landscape of clinical kinase drugs” (Science, 2017)
